Structures are written as SMILES. “Also recorded” adds a separate entry of the source. Read-outs that look alike come from different tables or passages of the source.

Data set [1] is classed as in vivo. The protocol: FIG. […]
(§1) Weight loss was calculated as percent change in mean group body weight, using the formula: ((W−W0)/W0)×100 • where ‘W’ represents mean body weight of the treated group at a particular day, and ‘W0’ represents mean body weight of the same group at start of treatment. Maximum weight loss was also calculated using the above formula, giving the maximum percentage of body weight lost at any time in the entire experiment for a particular group. Treatment efficacy was assessed by tumor growth inhibition. Tumour volumes of treated groups were given as percentages of tumor volumes of the control groups (% T/C), using the formula: 100×((T−T0)/(C−C0)) • where ‘T’ represents mean tumor volume of a treated group on a specific day during the experiment, ‘T0’ represented mean tumor volume of the same group on the first day of treatment, C represents mean tumor volume of a control group on a particular day of the experiment, and C0 represents mean tumor volume of the same group on the first day of treatment.

The test system of data set [2] is A549 NSCLC xenograft. It is filed as in vivo. How it is done:
Mice were implanted with A549 NSCLC cells. […] Tumor size was measured 3 times per week. Values are means, n=10.
(§2) H460a cells (provided by Dr Jack Roth, MD, Anderson) were grown in Dulbecco's Modified Eagle Media (DMEM) supplemented with 10% Foetal Bovine Serum (FBS). A549 cells (American Type Culture Collection [Manassas, Va.] were grown in Roswell Park Memorial Institute medium (RPMI) 1640+10% FBS. The cell concentrations for implant were 1×10^7 cells/0.2 mL for H460a and 7.5×10^6 cells/0.2 mL for A549.
(§3) Cells were suspended in phosphate-buffered saline, and implanted subcutaneously in the right flank of each mouse. Once palpable tumours were established, animals were randomised so that all groups had similar starting mean tumour volumes of 100-150 mm^3. Tumour measurements and mouse weights were taken three times per week. Animals were individually monitored throughout the experiment.
All groups were treated daily for 3 weeks.
All groups were treated every 6 days for 3 weeks (a total of three injections).
as §1
(§4) Tumor growth inhibition was calculated using the formula: 100−% T/C
(§5) Tumor volume (mm^3) was calculated using the ellipsoid formula: (Dx(d^2))/2 • where ‘D’ represents the large diameter of the tumor, and ‘d’ represents the small diameter. In some cases, tumor regression and/or percentage change in tumor volume was calculated using the formula: ((T−T0)/T0)×100 • where ‘T’ represents mean tumor volume of the treated group at a particular day, and ‘T0’ represents mean tumor volume of the same treated group at the start of treatment.

The conditions of data set [3]: cited from earlier work.
The test system of data set [4] is H460a NSCLC xenograft. The data set can be described thus: Tumor growth inhibition in H460a NSCLC xenograft model. In kind it is in vivo, athymic nude mice. The protocol:
(§6) Mice were implanted with H460a NSCLC cells. […] Tumor size was measured 3 times per week. Values are means, n=10.
as §6, §2, §3
All groups were treated daily for 3 weeks. […]
Weight loss was calculated as percent change in mean group body weight, using the formula: ((W−W0)/W0)×100 • where ‘W’ represents mean body weight of the treated group at a particular day, and ‘W0’ represents mean body weight of the same group at start of treatment. Maximum weight loss was also calculated using the above formula, giving the maximum percentage of body weight lost at any time in the entire experiment for a particular group. Treatment efficacy was assessed by tumor growth inhibition. […]
as §4, §5

The nature of data set [5]: Pathology/necropsy and tumor immunohistochemistry in treated xenograft mice.
Source text: At necropsy, skin samples were fixed in 10% buffered formalin, embedded in paraffin, sectioned at 5μ and stained with haematoxylin and eosin.
Five mice per treatment from all remaining groups were given a full necropsy at the end of the study.
Tumor samples were fixed by immersion in 10% zinc formalin then processed in a Tissue-Tek® VIP (Sakura) and embedded in paraffin. Sections for immunohistochemistry were cut at 5μ. Pre-immune rabbit or goat serum (Dako Ltd) was used as the negative control. Sections were immersed in Target Retrieval Solution (Dako Ltd) and heated to 94° C. in a steamer (Black & Decker) for 20 minutes. Endogenous peroxidase activity was quenched with 6% H2O2 in methanol for 15 minutes.
For platelet endothelial cell adhesion molecule (PECAM-1, CD31) antigen and EGFR antigen, the sections were incubated overnight at room temperature with a polyclonal goat anti-PECAM-1 IgG (Santa Cruz Biotechnology, Santa Cruz, Calif.) diluted 1:800 in Antibody Diluent (Dako Ltd) or with a polyclonal rabbit anti-EGFR IgG (BioGenex, San Ramon, Calif.) diluted 1:50 in Antibody Diluent (Dako Ltd). Sections were incubated with Vectastain Elite ABC-peroxidase (Vector Laboratories) for 45 minutes at room temperature.
To detect apoptosis, the TUNEL TdT-FragEL™ DNA fragmentation detection kit (Oncogene Research Products, San Diego, Calif.) was used according to the manufacturer's recommendations. For all four antigens, Vector Nova Red (Vector Laboratories) was the final chromogen and haematoxylin the nuclear counterstain.
Data set [6] can be described thus: Chronic-dose plasma and tumor concentrations of erlotinib in tumor-bearing mice. In kind it is in vivo, nu/nu athymic mice. How it is done: On day 28 post tumor implant, blood (from the retro-orbital sinus) and tumor samples were collected at 1 and 6 hours post dosing. […] Values are means±SD, n=3.
(§7) For single-dose pharmacokinetics (PK), blood samples from three mice per time point were collected by cardiac puncture at 5, 15, 30, 60 minutes and 2, 4, 8, 16, 24 hours post-dose. For chronically treated animals, blood samples from two or three mice per time point were collected via the retro-orbital sinus at 1 and 6 hours. Collection tubes contained ethylene diamine tetra-acetic acid (EDTA) as anticoagulant. Samples were stored at −70° C. […] PK parameters were estimated by non-compartmental analysis of the composite data, using the PK evaluation programme WinNonlin PRO® version 3.1 (Pharsight Inc).

Data set [7] can be described thus: Single-dose pharmacokinetics of erlotinib in non-tumor bearing mice. It is filed as in vivo, female nu/nu athymic mice. The protocol: as §7
Three animals per time point were evaluated for PK data (FIG. 3).

Setting [8] is: erlotinib monotherapy, treated xenografts.

As to `N.N.[Cl][Pt][Cl]` [cisplatin], the MTD in data set [1] (cisplatin every 6 days x3 i.p., athymic nude mice) is 6 mg/kg; in data set [3] (cisplatin every 4 days x3 i.v. in nude mice (Riccardi 2001)), 4 mg/kg; in data set [3] (cisplatin every 6 days x2 i.v. in nude mice (Perez-Soler 2001)) it was 4 mg/kg; in data set [3] (cisplatin every 6 days x3 i.p. in C57/B16 mice (van Moorsel 1999)) it was 6 mg/kg. For the same compound, the Tumor growth inhibition in data set [2] (cisplatin 1.5 mg/kg, non-significant) turned out to be 30%; in data set [2] (cisplatin 6 mg/kg, day 47 post tumor implantation), 88%; in data set [4] (cisplatin 1.5 mg/kg i.p. every 6 days), 42%; in data set [4] (cisplatin 6 mg/kg i.p. every 6 days), 81%. The “Extent of partial regression” value in data set [2] (cisplatin 6 mg/kg) came to 2%. Further, the “Number of partial regressions” value in data set [2] (cisplatin 6 mg/kg) is on record as “one”. For the same compound, in data set [5] (cisplatin alone and in combination, severity dose dependent), the “Primary microscopic kidney lesions” value is “tubular necrosis and tubular basophilia”.

In the case of `C#Cc1cccc(Nc2ncnc3cc(OCCOC)c(OCCOC)cc23)c1` [erlotinib, [6,7-bis(2-methoxyethoxy)-4-quinazolin-4-yl]-(3-ethynylphenyl) amine], the Tolerability result in data set [1] (erlotinib 150 mg/kg for 3 weeks, previous efficacy studies (unpublished observation)) was “well tolerated”. In addition, the Toxicity outcome in data set [1] (erlotinib 200 mg/kg group) is “marked weight loss and all were euthanized”; in data set [1] (erlotinib 400 mg/kg group), “One mouse in the 400 mg/kg group died”. Further, the Tumor growth inhibition in data set [2] (erlotinib 25 mg/kg, day 47 post tumor implantation) is given as 25%; in data set [2] (erlotinib 100 mg/kg, day 47 post tumor implantation), 93%. Also, the “Extent of partial regression” value in data set [2] (erlotinib 100 mg/kg) turned out to be 2%. For the same compound, the “Number of partial regressions” value in data set [2] (erlotinib 100 mg/kg) is listed as “one”. Also, the “Correlation of tumor concentrations with plasma concentrations” value in data set [6] (H460a tumor-bearing mice) was “correlated well”. Besides, the “Dose dependence of exposure” value in data set [6] (ascending oral doses 6.3-150.0 mg/kg, tumor-bearing mice) is “dose-dependent and more than dose-proportional”. Besides, in data set [4] (erlotinib monotherapy dose response study), the Tumor regressions result is recorded as “no partial or complete regressions”. Further, in data set [7] (20 and 100 mg/kg single dose by gavage), the “Time of maximum plasma concentration post dose” value was in the range of 0.5 to 1.0 h. For the same compound, the “Dose proportionality of exposure (AUC)” value in data set [7] (20 vs 100 mg/kg single dose) was “dose-proportional”. Moreover, the “Mean maximum plasma concentration” value was ~9,100 ng/mL in data set [7] (erlotinib 20 mg/kg single dose by gavage) and “approximately 24,000 ng/mL” in data set [7] (erlotinib 100 mg/kg single dose by gavage). In addition, the “Ki-67 proliferative index in tumor” value in data set [5] (erlotinib 1000 mg/kg (so in the source), both NSCLC xenograft tumor models) was “mild decrease”. Also, in data set [5] (erlotinib monotherapy), the “Haematology and clinical chemistry parameters” value was “no changes”. The “Skin lesions (macroscopic)” value in data set [5] (erlotinib monotherapy (100 mg/kg/day for 21 days), transient) was “substantial reddening and crusting of the skin of the muzzle; also recorded: reddened and flaky”. The “Angiogenesis, microvascular density (MVD) via CD31 staining” value in data set [5] (setting [8]) is “no clear effect”. The “Frequency of apoptosis in tumor cells (TUNEL)” value in data set [5] (setting [8]) was “no significant difference”.

Source of the values: patent publication US7951405B2 (priority 2004, dated 2011).
